Experimental findings from US20230339866A1, “Quinazoline compounds and the use thereof in the treatment of cancer” (TROBIO THERAPEUTICS PTY LTD, priority 2020, published 2023) are described below.

What all share (assay type): cell-based
Test [1] has as its system SK-N-SH neuroblastoma cells. Briefly: Anti-proliferative activity (MTS assay) against SK-N-SH neuroblastoma cells. The procedure:
The ability of compounds of the disclosure to inhibit the proliferation of SK-N-SH neuroblastoma cells was also assessed. […] Cell viability was normalised to control (vehicle alone) and dose response curves and IC50 values (Table 4) were determined using Graph Pad Prism 6.
(In general: Tetrazolium dyes change colour on reduction, which living cells bring about.)

Another test concerns A2780 (ovarian). The test is described as follows: Anti-proliferative activity (Cell-Titre luminescence) against A2780 ovarian cancer cells. Particulars: 72 h exposure, Cell-Titre luminescent reagent. The method in brief: (§1)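 EC50 derived by nonlinear variable-slope sigmoidal fit of luminescent Cell-Titre viability, normalised to vehicle control. Compound (0.1–30 μM, six concentrations) applied for 72 h after 24 h attachment at 37 °C, 5% CO2.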

The subject of the next test is A549 (NSCLC). The test is described as follows: Anti-proliferative activity (Cell-Titre luminescence) against A549 non-small cell lung cancer cells. The following applies: 72 h exposure, Cell-Titre luminescent reagent. The method in brief:
as §1

What is called IC50 is the concentration that gives 50% inhibition. Low readings indicate greater potency, high ones weaker potency.

With `CN1CCN(CCNc2nc(Nc3cccc(F)c3)nc3ccccc23)CC1` [Compound 56, N^2-(3-fluorophenyl)-N^4-(2-(4-methylpiperazin-1-yl)ethyl)quinazoline-2,4-diamine], the IC50 is 3.68 µM in test [1] (Homo sapiens, SK-N-SH, 72 h); 1.01 µM in the test on A2780 (ovarian) (Homo sapiens, A2780, 72 h); 8.5 µM in the test on A549 (NSCLC) (Homo sapiens, A549, 72 h).

On to `CN(C)CCNc1nc(Nc2cccc(C(F)(F)F)c2)nc2ccccc12` [Compound 60, N^4-(2-(dimethylamino)ethyl)-N^2-(3-(trifluoromethyl)phenyl)quinazoline-2,4-diamine], for which the IC50 in test [1] (Homo sapiens, SK-N-SH, 72 h) turned out to be 2.61 µM; in the test with A2780 (ovarian) (Homo sapiens, A2780, 72 h), 2.21 µM; with A549 (NSCLC) (Homo sapiens, A549, 72 h) it was 2.74 µM.

On to `CN(C)CCCNc1nc(Nc2cccc(C(F)(F)F)c2)nc2ccccc12` [Compound 69, N^4-(3-(dimethylamino)propyl)-N^2-(3-(trifluoromethyl)phenyl)quinazoline-2,4-diamine], for which the IC50 came out at 2.39 µM in test [1] (Homo sapiens, SK-N-SH, 72 h); 0.797 µM with A2780 (ovarian) (Homo sapiens, A2780, 72 h); 2.74 µM in the test on A549 (NSCLC) (Homo sapiens, A549, 72 h).

For the compound `CCc1ccc(Nc2nc(NCCCN(C)C)c3ccccc3n2)cc1` [Compound 71, N^4-(3-(dimethylamino)propyl)-N^2-(4-ethylphenyl)quinazoline-2,4-diamine], the IC50 in test [1] (Homo sapiens, SK-N-SH, 72 h) stood at 2.07 µM; in the test with A2780 (ovarian) (Homo sapiens, A2780, 72 h), 2.88 µM; with A549 (NSCLC) (Homo sapiens, A549, 72 h), 7.14 µM.

For `CN(C)CCCNc1nc(NCCc2cccc(C(F)(F)F)c2)nc2ccccc12` [Compound 74, N^4-(3-(dimethylamino)propyl)-N^2-(3-(trifluoromethyl)phenethyl)quinazoline-2,4-diamine], the IC50 came to 1.24 µM in test [1] (Homo sapiens, SK-N-SH, 72 h); 1.16 µM in the test on A2780 (ovarian) (Homo sapiens, A2780, 72 h); 1.7 µM in the test on A549 (NSCLC) (Homo sapiens, A549, 72 h).

For `COc1ccc(CCNc2nc(NCCCN(C)C)c3ccccc3n2)cc1` [Compound 75, N^4-(3-(dimethylamino)propyl)-N^2-(4-methoxyphenethyl)quinazoline-2,4-diamine], the IC50 in test [1] (Homo sapiens, SK-N-SH, 72 h) was found to be 1.47 µM; in the test with A2780 (ovarian) (Homo sapiens, A2780, 72 h), 0.467 µM; in the test on A549 (NSCLC) (Homo sapiens, A549, 72 h) it was 1.49 µM.

As for `CN(C)CCCNc1nc(NCCc2cccc(F)c2)nc2ccccc12` [Compound 77, N^4-(3-(dimethylamino)propyl)-N^2-(3-fluorophenethyl)quinazoline-2,4-diamine], the IC50 in test [1] (Homo sapiens, SK-N-SH, 72 h) came out at 2.36 µM; with A2780 (ovarian) (Homo sapiens, A2780, 72 h), 3.49 µM; in the test on A549 (NSCLC) (Homo sapiens, A549, 72 h) it was 3.04 µM.

With `CN(C)CCCNc1nc(NCCc2ccc(F)cc2)nc2ccccc12` [Compound 78, N^4-(3-(dimethylamino)propyl)-N^2-(4-fluorophenethyl)quinazoline-2,4-diamine], the IC50 in test [1] (Homo sapiens, SK-N-SH, 72 h) amounted to 1.86 µM; in the test with A2780 (ovarian) (Homo sapiens, A2780, 72 h), 2.95 µM; in the test with A549 (NSCLC) (Homo sapiens, A549, 72 h) it was 2.33 µM.

Consider `COc1ccc(Nc2nc(NCCc3c[nH]cn3)c3ccccc3n2)cc1` [Compound 80, N^4-(2-(1H-imidazol-4-yl)ethyl)-N^2-(4-methoxyphenyl)quinazoline-2,4-diamine], for which the IC50 in test [1] (Homo sapiens, SK-N-SH, 72 h) turned out to be 2.87 µM; with A2780 (ovarian) (Homo sapiens, A2780, 72 h), 3.33 µM; with A549 (NSCLC) (Homo sapiens, A549, 72 h), 4 µM.

`CCc1ccc(Nc2nc(NCCc3c[nH]cn3)c3ccccc3n2)cc1` [Compound 81, N^4-(2-(1H-imidazol-4-yl)ethyl)-N^2-(4-ethylphenyl)quinazoline-2,4-diamine]: the IC50 in test [1] (Homo sapiens, SK-N-SH, 72 h) worked out at 3.82 µM; in the test with A2780 (ovarian) (Homo sapiens, A2780, 72 h), 1.2 µM; in the test on A549 (NSCLC) (Homo sapiens, A549, 72 h), 3.1 µM.

Regarding `Fc1cccc(Nc2nc(NCCc3c[nH]cn3)c3ccccc3n2)c1` [Compound 82, N^4-(2-(1H-imidazol-4-yl)ethyl)-N^2-(3-fluorophenyl)quinazoline-2,4-diamine], the IC50 in test [1] (Homo sapiens, SK-N-SH, 72 h) is 4.46 µM; with A2780 (ovarian) (Homo sapiens, A2780, 72 h), 1.88 µM; in the test with A549 (NSCLC) (Homo sapiens, A549, 72 h), 7.46 µM.

For `Fc1cccc(Nc2nc(NCCc3c[nH]cn3)c3ccccc3n2)c1` [Compound 83, N^4-(2-(1H-imidazol-4-yl)ethyl)-N^2-(3-fluorophenyl)quinazoline-2,4-diamine], the IC50 turned out to be 3.88 µM in test [1] (72 hours), 2.2 µM in the test on A2780 (ovarian) and 9.16 µM in the test with A549 (NSCLC).

As to `FC(F)(F)c1cccc(CCNc2nc(NCCc3c[nH]cn3)c3ccccc3n2)c1` [Compound 84, N^4-(2-(1H-imidazol-4-yl)ethyl)-N^2-(3-(trifluoromethyl)phenethyl)quinazoline-2,4-diamine], the IC50 in test [1] (Homo sapiens, SK-N-SH, 72 h) turned out to be 1.26 µM; in the test on A2780 (ovarian) (Homo sapiens, A2780, 72 h) it was 1.51 µM; in the test with A549 (NSCLC) (Homo sapiens, A549, 72 h) it was 1.39 µM.

With `COc1ccc(CCNc2nc(NCCc3c[nH]cn3)c3ccccc3n2)cc1` [Compound 85, N^4-(2-(1H-imidazol-4-yl)ethyl)-N^2-(4-methoxyphenethyl)quinazoline-2,4-diamine], the IC50 in test [1] (Homo sapiens, SK-N-SH, 72 h) came out at 4.28 µM; in the test on A2780 (ovarian) (Homo sapiens, A2780, 72 h), 1.74 µM; in the test on A549 (NSCLC) (Homo sapiens, A549, 72 h), 6.81 µM.

In the case of `CCc1ccc(CCNc2nc(NCCc3c[nH]cn3)c3ccccc3n2)cc1` [Compound 86, N^4-(2-(1H-imidazol-4-yl)ethyl)-N^2-(4-ethylphenethyl)quinazoline-2,4-diamine], the 50% inhibitory concentration (IC50) in test [1] (Homo sapiens, SK-N-SH, 72 h) was found to be 2.17 µM; in the test on A2780 (ovarian) (Homo sapiens, A2780, 72 h), 1.07 µM; with A549 (NSCLC) (Homo sapiens, A549, 72 h), 3.23 µM.

As for `Fc1ccc(CCNc2nc(NCCc3c[nH]cn3)c3ccccc3n2)cc1` [Compound 88, N^4-(2-(1H-imidazol-4-yl)ethyl)-N^2-(4-fluorophenethyl)quinazoline-2,4-diamine], the IC50 in test [1] (Homo sapiens, SK-N-SH, 72 h) was 2.2 µM; in the test with A2780 (ovarian) (Homo sapiens, A2780, 72 h) it was 1.74 µM; in the test on A549 (NSCLC) (Homo sapiens, A549, 72 h), 3.42 µM.

Regarding `CCc1ccc(CCNc2nc(NCCO)c3ccccc3n2)cc1` [Compound 89, 2-((2-((4-ethylphenethyl)amino)quinazolin-4-yl)amino)ethan-1-ol], the IC50 in test [1] (Homo sapiens, SK-N-SH, 72 h) was found to be 3.48 µM; in the test on A2780 (ovarian) (Homo sapiens, A2780, 72 h), 2.73 µM; in the test with A549 (NSCLC) (Homo sapiens, A549, 72 h) it was 6.1 µM.

`CCc1ccc(CCNc2nc(NCCCO)c3ccccc3n2)cc1` [Compound 93, 3-((2-((4-ethylphenethyl)amino)quinazolin-4-yl)amino)propan-1-ol]: the IC50 stood at 4.43 µM in test [1] (Homo sapiens, SK-N-SH, 72 h); 2.65 µM in the test with A2780 (ovarian) (Homo sapiens, A2780, 72 h); 10.1 µM in the test with A549 (NSCLC) (Homo sapiens, A549, 72 h).

Take `OCCCNc1nc(NCCc2ccc(F)cc2)nc2ccccc12` [Compound 95, 3-((2-((4-fluorophenethyl)amino)quinazolin-4-yl)amino)propan-1-ol]: the IC50 in test [1] (Homo sapiens, SK-N-SH, 72 h) turned out to be 2.62 µM; in the test with A2780 (ovarian) (Homo sapiens, A2780, 72 h) it was 2.78 µM; in the test with A549 (NSCLC) (Homo sapiens, A549, 72 h) it was 1.76 µM.

As to `CN(C)CCNc1nc(-c2ccsc2)nc2ccccc12` [Compound 96, N^1,N^1-dimethyl-N^2-(2-(thiophen-3-yl)quinazolin-4-yl)ethane-1,2-diamine], the concentration for half-maximal inhibition (IC50) in test [1] (Homo sapiens, SK-N-SH, 72 h) amounted to 8.77 µM; in the test on A2780 (ovarian) (Homo sapiens, A2780, 72 h) it was 5.52 µM; in the test on A549 (NSCLC) (Homo sapiens, A549, 72 h), 6.7 µM.

In the case of `CN(C)CCNc1nc(-c2ccc[nH]2)nc2ccccc12` [Compound 97, N^1-(2-(1H-pyrrol-2-yl)quinazolin-4-yl)-N^2,N^2-dimethylethane-1,2-diamine], the IC50 in test [1] (Homo sapiens, SK-N-SH, 72 h) came out at 8.54 µM; in the test on A2780 (ovarian) (Homo sapiens, A2780, 72 h), 3.07 µM; in the test with A549 (NSCLC) (Homo sapiens, A549, 72 h) it was 4.99 µM.

For `CN(C)CCNc1nc(-c2cc[nH]c2)nc2ccccc12` [Compound 98, N^1-(2-(1H-pyrrol-3-yl)quinazolin-4-yl)-N^2,N^2-dimethylethane-1,2-diamine], the IC50 in test [1] (Homo sapiens, SK-N-SH, 72 h) was found to be 3.93 µM; in the test on A2780 (ovarian) (Homo sapiens, A2780, 72 h), 1.03 µM; in the test on A549 (NSCLC) (Homo sapiens, A549, 72 h), 5.21 µM.

`FC(F)(F)c1cccc(CCNc2nc(NCCN3CCNCC3)c3ccccc3n2)c1` [Compound 112, N^4-(2-(piperazin-1-yl)ethyl)-N^2-(3-(trifluoromethyl)phenethyl)quinazoline-2,4-diamine]: the IC50 in test [1] (Homo sapiens, SK-N-SH, 72 h) came out at 0.46 µM; in the test with A2780 (ovarian) (Homo sapiens, A2780, 72 h) it was 0.767 µM; with A549 (NSCLC) (Homo sapiens, A549, 72 h) it was 0.938 µM.

Consider `Cc1cccc(CCNc2nc(NCCN3CCN(C)CC3)c3ccccc3n2)c1` [Compound 124, N^2-(3-methylphenethyl)-N^4-(2-(4-methylpiperazin-1-yl)ethyl)quinazoline-2,4-diamine], for which the IC50 in test [1] (Homo sapiens, SK-N-SH, 72 h) is 0.68 µM; in the test with A2780 (ovarian) (Homo sapiens, A2780, 72 h), 2.74 µM; with A549 (NSCLC) (Homo sapiens, A549, 72 h), 2.25 µM.

Take `CN1CCN(CCNc2nc(NCCc3cccc(Cl)c3)nc3ccccc23)CC1` [Compound 125, N^2-(3-chlorophenethyl)-N^4-(2-(4-methylpiperazin-1-yl)ethyl)quinazoline-2,4-diamine]: the IC50 in test [1] (Homo sapiens, SK-N-SH, 72 h) was 0.73 µM; in the test with A2780 (ovarian) (Homo sapiens, A2780, 72 h), 0.968 µM; in the test with A549 (NSCLC) (Homo sapiens, A549, 72 h), 1.62 µM.

For the compound `CC(C)c1ccc(CCNc2nc(NCCN3CCN(C)CC3)c3ccccc3n2)cc1` [Compound 128, N^2-(4-isopropylphenethyl)-N^4-(2-(4-methylpiperazin-1-yl)ethyl)quinazoline-2,4-diamine], the half-inhibitory concentration (IC50) in test [1] (Homo sapiens, SK-N-SH, 72 h) worked out at 0.57 µM; in the test on A2780 (ovarian) (Homo sapiens, A2780, 72 h), 0.606 µM; in the test with A549 (NSCLC) (Homo sapiens, A549, 72 h) it was 0.943 µM.

Take `CN1CCN(CCNc2nc(NCCc3ccc(C(C)(C)C)cc3)nc3ccccc23)CC1` [Compound 129, N^2-(4-(tert-butyl)phenethyl)-N^4-(2-(4-methylpiperazin-1-yl)ethyl)quinazoline-2,4-diamine]: the IC50 in test [1] (Homo sapiens, SK-N-SH, 72 h) was 0.42 µM; in the test on A2780 (ovarian) (Homo sapiens, A2780, 72 h), 0.316 µM; in the test with A549 (NSCLC) (Homo sapiens, A549, 72 h), 1 µM.

Consider “N^4-(2-(dimethylamino)ethyl)-N^2-(3-(trifluoromethyl)phenethyl)quinazoline-2,4-diamine [Compound 64]”, for which the results for the IC50 (in test [1] (72 hours); with A2780 (ovarian); in the test on A549 (NSCLC)) were 1.45 µM, 2.38 µM and 2.87 µM, respectively.
